# Measured values from ChEMBL document CHEMBL1153119, “Design and synthesis of orally-active and selective azaindane 5HT2c agonist for the treatment of obesity” (Bioorg Med Chem Lett, 2010).
# Active and inactive are the calls of the source. The rule behind the calls is not given here.
# Key:
# [1] = molecular target: T1, 5-hydroxytryptamine receptor 2C (Homo sapiens, UniProt P28335); assay: Antagonist activity against human 5HT2C receptor by FLIPR assay; type: functional
# T1 sequence (P28335 whole entry): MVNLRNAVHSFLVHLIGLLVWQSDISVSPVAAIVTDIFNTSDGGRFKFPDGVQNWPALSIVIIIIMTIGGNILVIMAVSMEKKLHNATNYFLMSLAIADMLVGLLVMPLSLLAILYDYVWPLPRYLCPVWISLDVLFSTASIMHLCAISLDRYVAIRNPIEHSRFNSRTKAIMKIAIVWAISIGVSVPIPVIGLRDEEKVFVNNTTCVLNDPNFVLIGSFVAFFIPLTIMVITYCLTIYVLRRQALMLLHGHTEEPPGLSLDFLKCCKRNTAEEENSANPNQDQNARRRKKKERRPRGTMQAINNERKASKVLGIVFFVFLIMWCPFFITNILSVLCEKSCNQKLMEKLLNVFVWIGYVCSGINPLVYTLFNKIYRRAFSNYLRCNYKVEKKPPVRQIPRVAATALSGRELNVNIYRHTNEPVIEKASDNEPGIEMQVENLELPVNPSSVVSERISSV
# [2] = molecular target: T2, 5-hydroxytryptamine receptor 2C (Homo sapiens) (UniProt P28335); assay: Agonist activity against human 5HT2C receptor by FLIPR assay
# T2 sequence (whole entry): T1 sequence (P28335 whole entry)
# [3] = molecular target: T1, 5-hydroxytryptamine receptor 2C; assay: Agonist activity against human 5HT2C receptor by FLIPR assay; type: functional
# [4] = molecular target: T3, 5-hydroxytryptamine receptor 2A (Homo sapiens, UniProt P28223); assay: Agonist activity against human 5HT2A receptor by FLIPR assay; type: functional
# T3 sequence (P28223 whole entry): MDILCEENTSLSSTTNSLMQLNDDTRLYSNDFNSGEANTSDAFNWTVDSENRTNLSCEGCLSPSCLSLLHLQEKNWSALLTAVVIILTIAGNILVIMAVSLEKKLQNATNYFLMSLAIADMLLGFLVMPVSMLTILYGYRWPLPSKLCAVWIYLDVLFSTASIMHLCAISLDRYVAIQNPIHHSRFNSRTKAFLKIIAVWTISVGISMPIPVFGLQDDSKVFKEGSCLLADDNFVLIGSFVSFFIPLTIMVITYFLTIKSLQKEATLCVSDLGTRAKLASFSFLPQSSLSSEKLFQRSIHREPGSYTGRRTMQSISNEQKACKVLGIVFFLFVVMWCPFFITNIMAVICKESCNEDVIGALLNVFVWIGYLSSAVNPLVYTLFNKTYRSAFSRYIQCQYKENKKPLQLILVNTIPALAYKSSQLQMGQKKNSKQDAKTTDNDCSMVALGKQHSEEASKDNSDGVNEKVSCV
# [5] = molecular target: T3, 5-hydroxytryptamine receptor 2A; assay: Agonist activity against human 5HT2A receptor by FLIPR assay relative to 5HT; type: functional
# [6] = molecular target: 5-hydroxytryptamine receptor 2A (Rattus norvegicus, UniProt P14842); assay: Displacement of [125I]DOI from rat 5HT2A receptor expressed in mouse 3T3 cells; type: cell-based, NIH3T3
# Chain of 5-hydroxytryptamine receptor 2A (Rattus norvegicus, UniProt P14842) (P14842 whole entry): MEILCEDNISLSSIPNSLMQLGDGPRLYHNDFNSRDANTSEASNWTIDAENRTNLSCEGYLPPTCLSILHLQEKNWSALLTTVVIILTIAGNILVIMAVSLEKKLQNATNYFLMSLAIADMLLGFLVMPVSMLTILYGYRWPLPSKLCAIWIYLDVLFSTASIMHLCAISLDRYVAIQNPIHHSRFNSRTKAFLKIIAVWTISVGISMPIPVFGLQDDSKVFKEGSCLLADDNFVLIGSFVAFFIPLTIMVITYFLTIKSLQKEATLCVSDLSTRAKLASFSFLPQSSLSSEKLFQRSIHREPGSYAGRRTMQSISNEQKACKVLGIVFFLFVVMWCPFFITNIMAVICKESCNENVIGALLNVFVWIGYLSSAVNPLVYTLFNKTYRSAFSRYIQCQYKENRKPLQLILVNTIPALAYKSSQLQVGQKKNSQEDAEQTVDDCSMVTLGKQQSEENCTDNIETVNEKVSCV
# [7] = molecular target: T4, 5-hydroxytryptamine receptor 2B (Homo sapiens, UniProt P41595); assay: Displacement of [125I]DOI from human 5HT2B receptor expressed in CHO cells; type: cell-based
# T4 sequence (P41595 whole entry): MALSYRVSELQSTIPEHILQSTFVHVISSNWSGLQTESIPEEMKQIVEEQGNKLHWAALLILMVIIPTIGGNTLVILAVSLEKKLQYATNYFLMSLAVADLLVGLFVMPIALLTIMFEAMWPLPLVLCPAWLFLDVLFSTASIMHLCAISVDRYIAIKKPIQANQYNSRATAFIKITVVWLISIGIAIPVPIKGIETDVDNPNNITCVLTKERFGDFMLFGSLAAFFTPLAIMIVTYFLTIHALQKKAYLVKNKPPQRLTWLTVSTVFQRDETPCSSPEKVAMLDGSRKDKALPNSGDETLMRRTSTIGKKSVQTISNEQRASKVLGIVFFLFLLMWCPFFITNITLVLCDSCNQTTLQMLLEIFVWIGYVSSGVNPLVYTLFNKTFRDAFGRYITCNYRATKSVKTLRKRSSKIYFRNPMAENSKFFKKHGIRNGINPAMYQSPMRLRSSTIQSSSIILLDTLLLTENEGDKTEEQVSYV
# [8] = molecular target: T4, 5-hydroxytryptamine receptor 2B; assay: Agonist activity against human 5HT2B receptor by FLIPR assay; type: functional
# [9] = molecular target: T4, 5-hydroxytryptamine receptor 2B; assay: Agonist activity against human 5HT2B receptor by FLIPR assay relative to 5HT; type: functional
# [10] = molecular target: T1, 5-hydroxytryptamine receptor 2C; assay: Displacement of [3H]5HT from human 5HT2C receptor expressed in mouse 3T3 cells by scintillation counting; type: cell-based, NIH3T3
# [11] = Half life in human hepatocyte at 1 mM; type: ADME, cell-based, Liver; details: hepatocytes
# [12] = molecular target: T1, 5-hydroxytryptamine receptor 2C; assay: Agonist activity against human 5HT2C receptor by GTPgammaS binding; type: functional
# [13] = Intrinsic clearance in monkey hepatocyte at 1 mM; type: ADME, tissue-based, Macaca mulatta, Liver; details: rhesus monkey, hepatocytes
# [14] = Half life in dog hepatocyte at 1 mM; type: ADME, Canis lupus familiaris, Liver; details: hepatocytes
# [15] = molecular target: T2, 5-hydroxytryptamine receptor 2C (Homo sapiens); assay: Antagonist activity against 5HT2c receptor; type: functional
# [16] = Half life in dog microsomes at 0.3 mM; type: ADME, Canis lupus familiaris, Microsome
# [17] = Intrinsic clearance in dog microsomes at 0.3 mM; type: ADME, Canis lupus familiaris, Liver, Microsome
# [18] = Intrinsic clearance in human microsomes at 0.3 mM; type: ADME, Microsome
# [19] = molecular target: T2, 5-hydroxytryptamine receptor 2C (Homo sapiens); assay: Agonist activity against human 5HT2C receptor by GTPgammaS binding relative to control; type: functional
# [20] = Intrinsic clearance in rat microsomes at 0.3 mM; type: ADME, Microsome
# [21] = Half life in rat microsomes at 0.3 mM; type: ADME, Microsome
# [22] = molecular target: T2, 5-hydroxytryptamine receptor 2C (Homo sapiens); assay: Agonist activity against human 5HT2C receptor assessed as inositol phosphate accumulation; type: functional
# [23] = molecular target: T3, 5-hydroxytryptamine receptor 2A; assay: Antagonist activity against 5HT2A receptor; type: functional
# [24] = Ratio of drug uptake in CSF to plasma in rat; type: ADME
# [25] = Clearance in rat; type: ADME, organism-based; details: in vivo
# [26] = Clearance in monkey; type: ADME, organism-based, Macaca mulatta; details: rhesus monkey, in vivo
# [27] = Ratio of drug uptake in CSF to free plasma in rat; type: ADME, organism-based; details: in vivo
# [28] = Half life in human microsomes at 0.3 mM; type: ADME, Microsome
# [29] = molecular target: Voltage-gated inwardly rectifying potassium channel KCNH2 (Homo sapiens, UniProt Q12809); assay: Inhibition of human ERG channel
# Chain of Voltage-gated inwardly rectifying potassium channel KCNH2 (Q12809 whole entry): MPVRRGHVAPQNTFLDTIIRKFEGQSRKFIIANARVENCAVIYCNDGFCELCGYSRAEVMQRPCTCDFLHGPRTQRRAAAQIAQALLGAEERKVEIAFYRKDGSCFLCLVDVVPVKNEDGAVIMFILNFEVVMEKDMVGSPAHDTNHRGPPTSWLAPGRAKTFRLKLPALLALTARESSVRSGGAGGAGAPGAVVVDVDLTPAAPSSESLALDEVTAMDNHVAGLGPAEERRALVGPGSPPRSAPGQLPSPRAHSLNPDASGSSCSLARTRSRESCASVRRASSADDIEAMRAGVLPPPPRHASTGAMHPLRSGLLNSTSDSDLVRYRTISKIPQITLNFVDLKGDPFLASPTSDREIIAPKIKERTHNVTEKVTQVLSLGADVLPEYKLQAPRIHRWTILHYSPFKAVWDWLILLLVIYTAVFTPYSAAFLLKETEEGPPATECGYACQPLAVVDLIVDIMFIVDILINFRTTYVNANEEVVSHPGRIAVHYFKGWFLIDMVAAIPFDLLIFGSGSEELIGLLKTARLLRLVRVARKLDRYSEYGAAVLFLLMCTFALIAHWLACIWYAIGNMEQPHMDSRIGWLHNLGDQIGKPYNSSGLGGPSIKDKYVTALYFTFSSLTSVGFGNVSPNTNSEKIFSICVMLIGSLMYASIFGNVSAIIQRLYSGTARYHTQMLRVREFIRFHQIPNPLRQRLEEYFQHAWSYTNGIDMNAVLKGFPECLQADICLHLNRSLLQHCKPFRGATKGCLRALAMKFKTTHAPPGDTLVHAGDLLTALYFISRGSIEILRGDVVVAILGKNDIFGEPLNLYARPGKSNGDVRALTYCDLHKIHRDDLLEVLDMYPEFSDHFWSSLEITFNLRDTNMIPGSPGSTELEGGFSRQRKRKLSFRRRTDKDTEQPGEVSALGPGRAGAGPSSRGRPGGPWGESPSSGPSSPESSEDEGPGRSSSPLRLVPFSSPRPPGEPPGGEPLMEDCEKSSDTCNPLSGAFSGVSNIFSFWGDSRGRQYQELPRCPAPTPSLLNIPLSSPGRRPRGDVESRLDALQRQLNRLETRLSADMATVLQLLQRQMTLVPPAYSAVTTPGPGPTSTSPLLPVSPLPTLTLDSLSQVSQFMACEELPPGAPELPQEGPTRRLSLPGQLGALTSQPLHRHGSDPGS
# [30] = Intrinsic clearance in rat hepatocyte at 1 mM; type: ADME, cell-based, Liver; details: hepatocytes
# [31] = Intrinsic clearance in dog hepatocyte at 1 mM; type: ADME, tissue-based, Canis lupus familiaris, Liver; details: hepatocytes
# [32] = Half life in monkey microsomes at 0.3 mM; type: ADME, Macaca mulatta, Microsome; details: rhesus monkey
# [33] = Intrinsic clearance in human hepatocyte at 1 mM; type: ADME, cell-based, Liver; details: hepatocytes
# [34] = Ratio of drug uptake in brain to plasma in rat; type: ADME, organism-based; details: in vivo
# [35] = molecular target: T4, 5-hydroxytryptamine receptor 2B; assay: Agonist activity against 5HT2B receptor assessed as inositol phosphate accumulation; type: functional
# [36] = molecular target: T4, 5-hydroxytryptamine receptor 2B; assay: Antagonist activity against 5HT2B receptor; type: functional
# [37] = Half life in rat hepatocyte at 1 mM; type: ADME, cell-based, Liver; details: hepatocytes
# [38] = Clearance in dog; type: ADME, organism-based, Canis lupus familiaris; details: in vivo
# [39] = molecular target: T3, 5-hydroxytryptamine receptor 2A; assay: Agonist activity against 5HT2A receptor assessed as inositol phosphate accumulation; type: functional
# [40] = Intrinsic clearance in monkey microsomes at 0.3 mM; type: ADME, Macaca mulatta, Microsome; details: rhesus monkey
# Rattus norvegicus = assay: Antiobesity activity in Sprague-Dawley rat model assessed as reduction in food intake at 100 mg/kg, po after 2 hrs; type: functional; parameters: scale not given: the % may be the effect or the level left
# [41] = Half life in monkey hepatocyte at 1 mM; type: ADME, Macaca mulatta, Liver; details: rhesus monkey, hepatocytes
smiles,measurement,setting,value
Cc1csc2c(OCc3cccc(Cl)c3)nc(N3CCNCC3)nc12,IC50,[1],126 nM
C[C@@H]1CNCCN1c1ccc2c(n1)[C@@H](OCc1cc(F)ccc1F)CC2,Activity,[2],96%
same,EC50,[3],1 nM
same,EC50,[4],1430 nM
same,Activity,[5],18%
same,Ki,[6],16 nM
same,Ki,[7]; read-out: Ki,83 nM
c1cc2occc2c(N2CCNCC2)n1,Activity,[2],67%
same,EC50,[3],164 nM
c1nc(N2CCNCC2)c2ccsc2n1,Activity,[2],74%
same,EC50,[3],530 nM
Clc1ccccc1O[C@H]1CCc2ccc(N3CCNCC3)nc21,EC50,[8],300 nM
same,Activity,[2],92%
same,Activity,[9],58%
same,EC50,[3],0.1 nM
same,EC50,[4],87 nM
same,Activity,[5],87%
same,Ki,[6],1 nM
same,Ki,[7]; cho,Not Active
c1ccc2c(N3CCNCC3)nccc2c1,IC50,[1],24 nM
Cn1cnc2nc(OCc3ccccc3)nc(N3CCNCC3)c21,IC50,[1],> 500 nM
Clc1nc(N2CCNCC2)c2c3c(sc2n1)CCCC3,IC50,[1],710 nM
Clc1ccccc1O[C@H]1CCCc2ccc(N3CCNCC3)nc21,EC50,[8],397 nM
same,Activity,[2],97%
same,EC50,[3],10 nM
same,EC50,[4],70 nM
same,Activity,[5],93%
same,Ki,[6],0.7 nM
same,Ki,[7]; cho,Not Active
Clc1ccccc1O[C@@H]1CCc2ccc(N3CCNCC3)nc21,EC50,[8],748 nM
same,Activity,[2],97%
same,Activity,[9],21%
same,EC50,[3],22 nM
same,EC50,[4],1310 nM
same,Activity,[5],46%
same,Ki,[6],41 nM
same,Ki,[7]; cho,Not Active
c1cc2c(nc1N1CCNCC1)CCCC2,Activity,[2],93%
same,Activity,[9],Active
same,EC50,[3],25 nM
same,EC50,[4],2200 nM
same,Activity,[5],60%
same,Ki,[6],21 nM
same,Ki,[7]; cho,Not Active
Fc1cccc(O[C@H]2CCc3ccc(N4CCNCC4)nc32)c1,Ki,[10],3 nM
Clc1nc(N2CCNCC2)c2scc(-c3ccccc3)c2n1,IC50,[1],540 nM
Fc1ccc(F)c(CO[C@H]2CCc3ccc(N4CCNCC4)nc32)c1,EC50,[8],2700 nM
same,Activity,[2],91%
same,Activity,[9],18%
same,EC50,[3],1.4 nM
same,EC50,[4],1500 nM
same,Activity,[5],13%
same,Ki,[6],15 nM
same,Ki,[7]; read-out: Ki,153 nM
CCCn1cnc2c(N3CCNCC3)ncnc21,Activity,[2],55%
same,EC50,[3],1250 nM
Clc1ccccc1O[C@@H]1CCCc2ccc(N3CCNCC3)nc21,EC50,[8],998 nM
same,Activity,[2],95%
same,EC50,[3],120 nM
same,EC50,[4],578 nM
same,Activity,[5],76%
same,Ki,[6],2 nM
same,Ki,[7]; cho,Not Active
C[C@@H]1CNCCN1c1ccc2c(n1)[C@@H](Oc1ccccc1Cl)CC2,Ki,[10],0.6 nM
Cc1ccc(F)cc1CO[C@H]1CCc2ccc(N3CCNC[C@H]3C)nc21,half-life,[11],170 min
same,EC50,[12],1.9 nM
same,EC50,[8],566 nM
same,CLint scaled,[13],43 mL/min/kg
same,IC50,[1],≤ 86 nM
same,half-life,[14],64 min
same,Emax,[9],28%
same,EC50,[3],3.4 nM
same,Kb,[15],inactive
same,half-life,[16],24 min
same,CLint scaled,[17],59 mL/min/kg
same,CLint scaled,[18],20 mL/min/kg
same,Activity,[19],86%
same,CLint scaled,[20],1500 mL/min/kg
same,EC50,[4],630 nM
same,half-life,[21],2.2 min
same,Activity,[22],inactive
same,Kb,[23],62 nM
same,Kp,[24],0.015
same,clearance,[25],90 mL/min/kg
same,clearance,[26],8.6 mL/min/kg
same,ratio,[27],0.5
same,half-life,[28],44 min
same,IC50,[29],3900 nM
same,CLint scaled,[30],400 mL/min/kg
same,CLint scaled,[31],41 mL/min/kg
same,half-life,[32],12 min
same,CLint scaled,[33],5.1 mL/min/kg
same,ratio,[34],3.4
same,EC50,[35],> 10000 nM
same,Kb,[36],4 nM
same,Ki,[6],4.4 nM
same,half-life,[37],4.7 min
same,clearance,[38],34 mL/min/kg
same,Activity,[39],inactive
same,CLint scaled,[40],350 mL/min/kg
same,Activity,Rattus norvegicus,-74%
same,half-life,[41],53 min
c1cc2sccc2c(N2CCNCC2)n1,Activity,[2],60%
same,EC50,[3],187 nM
Brc1cn2ccnc2c(N2CCNCC2)n1,Activity,[2],79%
same,EC50,[3],1360 nM
Clc1cccc(COc2nc(N3CCNCC3)nc3ccsc23)c1,Activity,[2],43%
same,EC50,[3],2600 nM
Clc1cccc(COc2nc(N3CCNCC3)nc3sccc23)c1,Activity,[2],53%
same,EC50,[3],1200 nM
c1ccc2c(c1)sc1c(N3CCNCC3)ncnc12,Activity,[2],31%
COc1nc(N2CCNCC2)nc2c1CCCC2,Activity,[2],53%
same,EC50,[3],5000 nM
c1nc(N2CCNCC2)c2cc[nH]c2n1,Activity,[2],91%
same,EC50,[3],755 nM
Cc1cc2c(N3CCNCC3)ncnc2o1,Activity,[2],45%
same,EC50,[3],660 nM
Clc1cccc(COc2nc(N3CCNCC3)nc3nc[nH]c23)c1,IC50,[1],410 nM
c1nc(N2CCNCC2)c2sccc2n1,Activity,[2],81%
same,EC50,[3],400 nM
Clc1ccccc1OC1CCc2ccc(N3CCNCC3)nc21 (stereo not given),EC50,[8],187 nM
same,Activity,[2],93%
same,Activity,[9],50%
same,EC50,[3],0.1 nM
same,EC50,[4],236 nM
same,Activity,[5],75%
same,Ki,[6],3.8 nM
same,Ki,[7]; cho,Not Active
Clc1nc(N2CCNCC2)nc2sccc12,Activity,[2],69%
same,EC50,[3],616 nM
